Measurements from patent publication US20230129485A1, “SYSTEM AND METHOD FOR DETERMINING MATERIAL PROPERTIES OF MOLECULAR SYSTEMS FROM AN AB-INITIO PARAMETERIZED FORCE-FIELD” (InterX, Inc., priority 2021, published 2023).
Like-named read-outs stand apart in the source and are kept apart here.

Assays:
[1] = Free energy of hydration predicted by General Amber Force Field (GAFF), from literature; details: Table 5; error of GAFF hydration free energy vs experiment
[2] = Free energy of hydration by COSMO implicit solvent model (MolPro ver. 2012); details: absolute error vs Exp (hydration)
Protocol: (§1) Due to unavailability of free energy data for the original COSMO model, the free energies of solvation for the molecule dataset are calculated using MolPro ver. […] The comparisons to other implicit solvent models such as SMD, PCM and COSMO-RS are limited to the overlap of the molecules computed using QM-parameterized force field model. The free energies of hydration as predicted by these implicit solvent models (SMD, PCM) were received.

[3] = Table 5; free energy of hydration, AMOEBA prediction taken from literature; cited from earlier work
[4] = Free energy of hydration predicted with the QM-parameterized force field model (ARROW FF), classical MD and PIMD simulation in a water box; details: for Arrow error: Table 5, error of Arrow PIMD8 hydration free energy vs experiment; for Arrow PIMD8 Error: absolute error vs Exp (hydration)
Source text: For example, the example QM-parameterized force-field molecular simulation process 400 can use Bennett Acceptance Ratio (BAR) to compute the free energy of hydration/solvation of the molecule in water or any other solvent. In some implementations, the analysis of the molecular dynamics simulations includes analysis, predication, and visualization of ensemble properties of atoms/molecules from atomic and molecular trajectories using the optimized parameters of the QM-parameterized force field model (i.e., the quantum mechanics rule-based reasoning technique) and the QM-parameterized force field model.
(§2) In some simulations of the QM-parameterized force field molecular simulation process, the molecules were placed in a water or cyclohexane box of size 32×32×32 Å3. Particle-Mesh Ewald (PME) algorithm was used to compute the electrostatic interactions. A 32×32×32 grid mesh and 5th power spline interpolation order can be used to compute the inverse PME sum. 9 Å cutoffs were used to compute the direct PME sum as well as the exchange and dispersion interactions. Bulk corrections were applied to account for distance cut-off of dispersion interactions. Solvation free energies were computed by decoupling the interactions between the solute and the solvent molecules. Electrostatic, exchange-repulsion and dispersion interactions were switched off simultaneously using a lambda-dependent scaling (a scaling factor power=2 was used) and a soft-coring algorithm (maximal soft-coring radius=1.5 Å, soft-coring radius scaling factor power=1). 15 lambda points unequally spaced (X=0, 0.05, 0.1, 0.2, 0.3, 0.4, 0.5, 0.6, 0.7, 0.75, 0.8, 0.85, 0.9, 0.95, 1.0) were used to decouple the solute-solvent intermolecular interactions.
(§3) In some simulations of the QM-parameterized force field molecular simulation process, energy minimization (10,000 steps) using the steepest descent algorithm was initially performed on all the simulation systems. This was followed by a 50 ps equilibration and 1 ns production runs in the isothermal-isobaric ensemble (NPT). […] Pressure was maintained at 1 atm using a MTTK barostat (relaxation time=5 ps). A Multiple Time Step (MTS) algorithm was used to integrate the equations of motion both for the classical and path-integral runs. […] The calculations were performed using the QM-parameterized force field model.
Using the QM-parameterized force field model, the QM-parameterized force field device can compute or predict the solvation free energies using both the Bennett acceptance ratio (BAR) and thermodynamic integration (TI) method with <dH/dλ> values interpolated by cubic splines. […] FIG. 7A illustrates a <dH/dλ> dependence for desolvation of Anthracene in water. FIG. 7B illustrates accumulated statistical errors for TI calculations of AG desolvation of Anthracene in water.

[5] = Free energy of hydration predicted by polarizable AMOEBA force field, from literature; details: Table 5; error of AMOEBA hydration free energy vs experiment
[6] = Table 5; free energy of hydration, GAFF prediction taken from literature; cited from earlier work
[7] = experimental, cited from earlier work; for Exp (hydration): Table 5
[8] = implicit solvent model, values received; cited from earlier work
[9] = Free energy of hydration by Polarizable Continuum Model (PCM); details: absolute error vs Exp (hydration)
Protocol: as §1

[10] = implicit solvent model, values received; cited from earlier work; remark: listed apart in the source
[11] = Free energy of hydration by Solvation Model Dielectric (SMD) implicit solvent model; details: absolute error vs Exp (hydration)
Protocol: as §1

[12] = Free energy of hydration by COSMO-RS
Protocol: as §1

[13] = CHEX/H2O partition coefficient, experimental, cited from earlier work
[14] = experimental, cited from earlier work
[15] = CHEX/H2O partition coefficient (log D) predicted with the QM-parameterized force field model (ARROW FF)
Source text: In some simulations, the example QM-parameterized force-field molecular simulation process includes using the functional form of the bonded interactions, with force constants and equilibrium values fitted to QM energies at the MP2/aug-cc-pVTZ level of theory. In some simulations, solvents of water and cyclohexane are selected. Cyclohexane (CHEX) is nonpolar and equilibrates relatively quickly. Reliable experimental data for both CHEX solvation free energies, as well as for the CHEX/H2O partition coefficients are used in these simulations.
In some example simulations, solutes containing neutral chemical functional groups, for example carboxylic acids, alkanes, alkenes, aromatics, aldehydes, ketones, alcohols, amides, esters, thiols, sulfides, disulfides and heterocycles, are used. The simulations were performed independently by four groups using their own respective computational resources and architectures, and then averaged. FIGS. 9A-9C show solvation and hydration free energies predictions of various solutes, using the QM-parameterized force field model, in some embodiments.
The straight line is a line of agreement between experimental and simulated/predicted values, and the gray bar is the range or chemical accuracy. […] The molecules here are a subset of those in a) because only those with experimental values for CHEX solvation can be included.

[16] = Free energy of solvation in cyclohexane predicted with the QM-parameterized force field model (ARROW FF), MD and PIMD; details: Table 4
Source text: Cyclohexane (CHEX) is nonpolar and equilibrates relatively quickly.
as §2, with “Particle-Mesh” for “In some simulations of the QM-parameterized force field molecular simulation process, the molecules were placed in a water or cyclohexane box of size 32×32×32 Å3. Particle-Mesh”
as §3
Using the QM-parameterized force field model, the QM-parameterized force field device can compute or predict the solvation free energies using both the Bennett acceptance ratio (BAR) and thermodynamic integration (TI) method with <dH/dλ> values interpolated by cubic splines.

[17] = Table 3, absolute error of MD hydration free energy vs experiment
[18] = Table 3, absolute error of PIMD8 hydration free energy vs experiment
[19] = Table 3, free energy of hydration

For `CCCCS` [1-Butanethiol], the GAFF error [1] is listed as 0.69 kcal/mol, the “COSMO/Molpro Error” value [2] is listed as 3.06 kcal/mol and the AMOEBA [3] is listed as -0.12 kcal/mol. For the same molecule, the “water Arrow MD Error” value [4, 17] was 1.15 kcal/mol, the “water Arrow PIMD8 Error” value [4, 18] was 0.50 kcal/mol and the Arrow error [4] was 0.50 kcal/mol. The “Arrow PIMD8 Error” value [4] was 0.50 kcal/mol, the AMOEBA error [5] was 0.87 kcal/mol and the GAFF [6] was -1.68 kcal/mol. For the same molecule, the “water Exp (hydration)” value [7, 19] was -0.99 kcal/mol and the “Exp (hydration)” value ([7]; free energy of hydration) was -0.99 kcal/mol.

In the case of `C=CCC` [But-1-ene], the GAFF error [1] is listed as 1.10 kcal/mol, the “COSMO/Molpro Error” value [2] is listed as 3.14 kcal/mol and the “SMD free energy of hydration” value [8] is listed as 1.20 kcal/mol. The AMOEBA [3] was 0.83 kcal/mol, the “water Arrow MD Error” value [4, 17] was 0.54 kcal/mol and the “water Arrow PIMD8 Error” value [4, 18] was 0.25 kcal/mol. For the same molecule, the Arrow error [4] was 0.25 kcal/mol, the “Arrow PIMD8 Error” value [4] was 0.25 kcal/mol and the AMOEBA error [5] was 0.55 kcal/mol. The “PCM Error” value [9] was 2.18 kcal/mol, the GAFF [6] was 2.48 kcal/mol and the “PCM free energy of hydration” value [10] was -0.80 kcal/mol. The “SMD Error” value [11] was 0.18 kcal/mol, the COSMO-RS error [12] was 0.36 kcal/mol and the “water Exp (hydration)” value [7, 19] was 1.38 kcal/mol. For the same molecule, the “Exp (hydration)” value ([7]; free energy of hydration) was 1.38 kcal/mol.

In the case of `COC` [DiMethylEther], the GAFF error [1] is listed as 1.06 kcal/mol, the “COSMO/Molpro Error” value [2] is listed as 1.99 kcal/mol and the “SMD free energy of hydration” value [8] is listed as -0.60 kcal/mol. The AMOEBA [3] was -2.22 kcal/mol, the “water Arrow MD Error” value [4, 17] was 0.87 kcal/mol and the “water Arrow PIMD8 Error” value [4, 18] was 0.37 kcal/mol. The Arrow error [4] was 0.37 kcal/mol, the “Arrow PIMD8 Error” value [4] was 0.37 kcal/mol and the AMOEBA error [5] was 0.31 kcal/mol. The “PCM Error” value [9] was 0.11 kcal/mol, the GAFF [6] was -0.85 kcal/mol and the “PCM free energy of hydration” value [10] was -1.80 kcal/mol. For the same molecule, the “SMD Error” value [11] was 1.31 kcal/mol, the “water Exp (hydration)” value [7, 19] was -1.91 kcal/mol and the “Exp (hydration)” value ([7]; free energy of hydration) was -1.91 kcal/mol.

For `CSC` [DiMethylSulfide], the GAFF error [1] is given as 0.31 kcal/mol, the “COSMO/Molpro Error” value [2] is given as 2.61 kcal/mol and the “SMD free energy of hydration” value [8] is given as -0.30 kcal/mol. The AMOEBA [3] was -1.85 kcal/mol, the “water Arrow MD Error” value [4, 17] was 0.59 kcal/mol and the “water Arrow PIMD8 Error” value [4, 18] was 0.16 kcal/mol. For the same molecule, the Arrow error [4] was 0.16 kcal/mol, the “Arrow PIMD8 Error” value [4] was 0.16 kcal/mol and the AMOEBA error [5] was 0.31 kcal/mol. For the same molecule, the “PCM Error” value [9] was 0.56 kcal/mol, the GAFF [6] was -1.85 kcal/mol and the “PCM free energy of hydration” value [10] was -2.10 kcal/mol. The “SMD Error” value [11] was 1.24 kcal/mol, the “water Exp (hydration)” value [7, 19] was -1.54 kcal/mol and the “Exp (hydration)” value ([7]; free energy of hydration) was -1.54 kcal/mol.

For `c1c[nH]cn1` [Imidazole], the GAFF error [1] is given as 1.75 kcal/mol, the “COSMO/Molpro Error” value [2] is given as 3.71 kcal/mol and the “SMD free energy of hydration” value [8] is given as -9.00 kcal/mol. For the same molecule, the AMOEBA [3] was -10.25 kcal/mol, the “water Arrow MD Error” value [4, 17] was 0.81 kcal/mol and the “water Arrow PIMD8 Error” value [4, 18] was 0.29 kcal/mol. The Arrow error [4] was 0.29 kcal/mol, the “Arrow PIMD8 Error” value [4] was 0.29 kcal/mol and the AMOEBA error [5] was 0.65 kcal/mol. The “PCM Error” value [9] was 2.90 kcal/mol, the GAFF [6] was -7.85 kcal/mol and the “PCM free energy of hydration” value [10] was -6.70 kcal/mol. For the same molecule, the “SMD Error” value [11] was 0.60 kcal/mol, the COSMO-RS error [12] was 1.30 kcal/mol and the “water Exp (hydration)” value [7, 19] was -9.6 kcal/mol. For the same molecule, the “Exp (hydration)” value ([7]; free energy of hydration) was -9.60 kcal/mol.

For `CNC` [dimethylamine], the GAFF error [1] is listed as 1.19 kcal/mol, the “COSMO/Molpro Error” value [2] is listed as 0.57 kcal/mol and the “SMD free energy of hydration” value [8] is listed as -3.20 kcal/mol. For the same molecule, the AMOEBA [3] was -3.04 kcal/mol, the “water Arrow MD Error” value [4, 17] was 1.38 kcal/mol and the “water Arrow PIMD8 Error” value [4, 18] was 0.23 kcal/mol. The Arrow error [4] was 0.23 kcal/mol, the “Arrow PIMD8 Error” value [4] was 0.23 kcal/mol and the AMOEBA error [5] was 1.26 kcal/mol. The “PCM Error” value [9] was 2.30 kcal/mol, the GAFF [6] was -3.11 kcal/mol and the “PCM free energy of hydration” value [10] was -2.00 kcal/mol. The “SMD Error” value [11] was 1.10 kcal/mol, the COSMO-RS error [12] was 2.12 kcal/mol and the “water Exp (hydration)” value [7, 19] was -4.30 kcal/mol. For the same molecule, the “Exp (hydration)” value ([7]; free energy of hydration) was -4.30 kcal/mol.

In the case of `CCC(=O)O` [propionicacid], the “COSMO/Molpro Error” value [2] is given as 2.03 kcal/mol, the “SMD free energy of hydration” value [8] is given as -5.50 kcal/mol and the “water Arrow MD Error” value [4, 17] is given as 0.24 kcal/mol. For the same molecule, the “water Arrow PIMD8 Error” value [4, 18] was 0.25 kcal/mol, the “water Arrow MD Error” value ([4]; Table 4, error of MD hydration free energy vs experiment) was 0.24 kcal/mol and the “water Arrow PIMD8 Error” value ([4]; Table 4, error of PIMD8 hydration free energy vs experiment) was 0.25 kcal/mol. For the same molecule, the “Arrow PIMD8 Error” value [4] was 0.25 kcal/mol, the “Exp (log D)” value ([13]; Table 3) was −2.30 and the “logD Exp (logD)” value ([13]; Table 4) was −2.30. The “PCM Error” value [9] was 2.16 kcal/mol, the “PCM free energy of hydration” value [10] was -4.30 kcal/mol and the “CHEX Exp (solvation)” value ([14]; Table 3, free energy of solvation in cyclohexane) was -3.32 kcal/mol. For the same molecule, the “CHEX Exp (solvation)” value ([14]; Table 4, solvation free energy in cyclohexane) was -3.32 kcal/mol, the “SMD Error” value [11] was 0.96 kcal/mol and the COSMO-RS error [12] was 0.15 kcal/mol. The “log D Arrow MD Error” value [15] was 0.22, the “log D Arrow PIMD Error” value [15] was 0.05 and the “logD Arrow MD Error” value [15] was 0.22. The “logD Arrow PIMD Error” value [15] was 0.05, the “water Exp (hydration)” value [7, 19] was -6.46 kcal/mol and the “water Exp (hydration)” value ([7]; Table 4, neutral amino-acid analogues) was -6.46 kcal/mol. For the same molecule, the “CHEX Arrow MD Error” value ([16]; error of MD cyclohexane solvation free energy vs experiment) was 0.06 kcal/mol and the “CHEX Arrow PIMD4 Error” value ([16]; error of PIMD4 cyclohexane solvation free energy vs experiment) was 0.18 kcal/mol.
